In brackets after ≈: the same amount, converted by molar mass.
Key:
Assay type in all cases: physicochemical
[1] = Solubility at near-neutral pH; details: aqueous buffer
Procedure: (§1) The compound ICPD47 is sparingly soluble at near-neutral pH. Solubility is approximately equal to or below 100 μM. The solutions exceeding the solubility limit (0.25, 0.5, and 1.0 mM) were prepared by adding 1.5 equiv of NaOH (0.375 0.75, and 1.5 mM, respectively; 0.5 equiv excess), thus shifting the compound to its highly soluble deprotonated negatively charged form. The deprotonated solutions were titrated with […] more concentrated HCl (2.5 mM; 5.0 mM; and 10 mM) containing the same concentration of DMSO as in the analyte solution (2.0% in all solutions).

[2] = Chemical stability in acid and base; details: pH 2.0 to 12.0
[3] = Intrinsic pKa and intrinsic solubility of ICPD47 from pKa shift (spectrophotometric and potentiometric titration, linked ionization-dissolution model); details: 25 °C, pKa shift model
Procedure: as §1
The pH titration was performed with a 250 μL syringe that was filled with the titrant (acid), and the needle was placed into the sample cell filled with 2.5 mL of analyzed solution. A pH microelectrode was also inserted into the same cell. […] The analyzed solution was mixed after each injection using a pipet. The pH was measured potentiometrically using a Mettler Toledo MP220 pH meter with a combined glass InLab Microelectrode. […] The pH measurements were recorded only when the pH measurement instability was less than 0.01 min^–1. […]
The ICPD47 compound solutions were prepared in the universal buffer of different pH values from 4.5 to 10.5 at every 0.5 pH unit. […] The absorbance was measured with an Agilent 8453 UV–vis spectrophotometer using the same 2.5 mL cuvette as for potentiometric titration. […]

[4] = Intrinsic pKa and intrinsic solubility from the model applied to literature titration data (Bjerrum plots)
Description: Since raw data formats were unavailable, we used WebPlotDigitizer to extract data from Bjerrum plots.[28],[29] Additionally, we used the equation for bound hydrogen ions per substance molecule to reverse engineer equivalent titrant added during the titration.[30] According to the model, any protonizable compound exists in three forms, the charged-dissolved form, the uncharged-dissolved form, and the uncharged-nondissolved (aggregated) form. We use the concept of 'the active concentration of an aggregate (precipitate)'. This concentration is mathematically equal to the amount of aggregate divided by volume of solution. This aggregate remains undissolved and is at an equilibrium (thermodynamic) concentration. The uncharged form of the ICPD47 compound exists in two forms, the dissolved form [ROH] and the aggregated form [ROH↓]. Furthermore, the total concentration of the ICPD47 compound, C, is equal to the sum of all three forms of the compound and includes the deprotonated concentration [RO^-]: [drawing 1] 1 Here we assume that the deprotonated form is highly soluble and there is no need to consider the aggregated form of the negatively charged deprotonated compound. […] A is inversely proportional to the intrinsic solubility, S, and is expressed and rearranged to [drawing 7] 7 [drawing 8] […] 12 cannot be expressed as a function pH = f([Hadd^+]), but may be solved numerically.

| SMILES | solubility [1] [µM] | Chemical stability in acid and base [2] | solubility ([3]; aqueous buffer, kinetic from dmso stock, aqueous universal buffer / titration with DMSO, read-out: Intrinsic solubility of the uncharged form) [µM] | pKa ([3]; read-out: Intrinsic pKa (model estimate)) | pKa ([4]; model fit to literature titration data, value at infinite dilution) | solubility ([4]; water, thermodynamic from solid, model fit to literature titration data (ref 5, 22, 23)) [µM] |
| --- | --- | --- | --- | --- | --- | --- |
| CCOc1ccc(-c2snnc2-c2cc(Cl)c(O)cc2O)cc1 [ICPD47] | ≤ 100 | chemically stable in acid and base | ~75 | 6.85 | – | – |
| CN(C)CCCOc1nn(Cc2ccccc2)c2ccccc12 [benzydamine] | – | – | – | – | 9.6 | 270 (≈ 83.5 µg/mL) |

— publication PMC10688098, “Intrinsic Solubility of Ionizable Compounds from pKa Shift” (ACS Omega, 2023)
